{"source": "patent US20170065500A1", "about": "“Activation of Hydrogen Peroxide” (Revlon Consumer Products Corporation, priority 2015, published 2017)", "key": {"[1]": {"test_system": "C. xerosis", "experiment": "Bacterial colonies on agar petri dish treated with hydrogen peroxide alone and with UV light", "assay_type": "cell-based", "conditions": "+ 265 nm UV light, 15 minutes", "procedure": "(§1) The bacterial (organism) was plated on a standard agar petri dish and allowed to grow. The colonies were treated with hydrogen peroxide alone and with UV light for 15 minutes. The light growth means light growth is visable but not as fully developed colonies. Heavy growth was fully developed colonies to numerous to count."}, "[2]": {"test_system": "S. epidermidis", "experiment": "Bacterial colonies on agar petri dish treated with hydrogen peroxide alone and with UV light", "assay_type": "cell-based", "conditions": "+ 265 nm UV light, 15 minutes", "procedure": "as §1"}}, "data": [{"smiles": "OO", "note": "[Hydrogen peroxide]", "values": [{"measurement": "bacterial growth after treatment", "setting": "[1]", "value": "No"}, {"measurement": "bacterial growth after treatment", "setting": "[2]", "value": "Very"}]}]}
